Reference: patent US6608080B1, “Morphan derivatives or salts thereof and medicinal compositions containing the same” (Hisamitsu Pharmaceutical Co., Ltd., priority 1999, dated 2003)
Structures can show the parent of a compound that is named as a salt.

Tests used:
[1] = system: glycine receptors; test: ionic current induced by glycine in a single neuron of the tractus solitarius nucleus, whole cell patch clamp; type: cell-based, guinea pig; set-up: key to Action (class symbol): ±: no action; +: potentiated; −: inhibited; settings: for type of effect on glycine-induced ionic currents (in words): classification, 1 mM, example 7 at 300 μM; for Action (% of control): mean ± S.E.
Experimental: In order to confirm the excellent actions of the derivatives described in the present invention on modification of glycine receptors, the actions of various morphan derivatives against ionic current induced by glycine were evaluated in a single neuron of the tractus solitarius nucleus of a guinea pig.
The isolation of a single neuron was performed according to the method described in Kay et al. (J. Neurosci. Meth., 16, 227-238, 1986). Guinea pigs, Hartley strain, 7-10 days of age, were anesthetized, bled and decapitated and the medullae were rapidly extracted. Sliced sections, thickness 400 μm, were prepared by using a microslicer. The sliced segments obtained were incubated at 37° C. for 30 minutes, and regions of the tractus solitarius nucleus were punched out under a stereoscope. The punched out specimens were trypsinized in a 100% oxygen atmosphere at 37° C. for 30-60 minutes. The trypsinized tissues were dispersed mechanically to obtain the single neurons. Measurements of the ionic currents activated by glycine were performed using the whole cell mode of the patch clamp method. The ionic currents obtained were recorded using a pen-recorder. Administration of the test compounds was performed by the Y-tube method in which the external fluid peripheral to the cells could be changed to the test drug solution within 2 msec. (Neurosci. Lett., 103, 56-63, 1989). Concentrations of the test compounds were 1 mM, except that the highly lipophilic compound of example 7 was examined at 300 μM. All data were expressed by mean±S.E.
In Table 1, the effects of the morphan derivatives on ionic currents in single neurons from the tractus solitarius nucleus, induced by glycine at 30 μM are summarized.

[2] = system: GABA-induced currents; test: GABA-induced currents in a single neuron, whole cell patch clamp; type: cell-based, guinea pig; settings: test compound 1 mM; GABA 30 μM (FIG. 1)
[3] = glycine 30 μM, test compound 1 mM
[4] = glycine 30 μM, test compound 300 μM

Structure (SMILES)	type of effect on glycine-induced ionic currents (in words) [1]	Action (class symbol) [1, 3]	Action (% of control) [1, 3] [%]	also measured
CN1CCC2CCCC1C2 (stereo not drawn) (as salt: hydrochloric acid salt) [Example 1, 2-Methyl-2-azabicyclo[3.3.1]nonane]				melting point: 147 to 152 °C
CN1CCC2CCCC1C2 (stereo not drawn) [Example 1, 2-Methyl-2-azabicyclo[3.3.1]nonane]	weak action	±	99.7 ± 1.5	
C=CCC12CCCC(CCN1Cc1ccccc1O)C2 (stereo not drawn) [Example 7, 2-{[1-Allyl-(2-propenyl)-2-azabicyclo[3.3.1]nonane-2-yl]methyl}phenol]				concentration range of concentration-dependent inhibition of glycine-induced currents ([1]; FIG. 2, glycine 30 μM): 10 to 300 µM; Action (class symbol) [1, 4]: −; Action (% of control) [1, 4]: 60.5 ± 2.7%
C1CC2CCN3CCCC3(C1)C2 (stereo not drawn) [Example 6, 5-Azatricyclo[6.3.1.0^1,5]dodecane]	potentiation action	+	152.1 ± 16.6	
CCN1CCC2CCCC1C2 (stereo not drawn) [Example 2, 2-Ethyl-2-azabicyclo[3.3.1]nonane]	potentiation action	+	150.6 ± 14.2	action against GABA-induced currents [2]: no action; rank of action on glycine-induced current ([1]; glycine 30 μM): strongest enhancing action
C=CCN1CCC2CCCC1C2 (stereo not drawn) [Example 3, 2-Allyl-2-azabicyclo[3.3.1]nonane]	potentiation action	+	138.9 ± 5.6	
CCCC12CCCC(CCN1)C2 (stereo not drawn) [Example 5, 1-Propyl-2-azabicyclo[3.3.1]nonane]	potentiation action	+	138.1 ± 7.0	
CCC12CCCC(CCN1)C2 (stereo not drawn) [Example 4, 1-Ethyl-2-azabicyclo[3.3.1]nonane]	inhibitory action	−	70.9 ± 2.7	
